# Legend:
# Type in all cases: functional
# Bactrocera dorsalis [1] = assay: Resistance ratio of LC50 for adult Bactrocera dorsalis WX07 to LC50 for adult Bactrocera dorsalis after 24 hr
# Bactrocera dorsalis [2] = assay: Insecticidal activity against adult Bactrocera dorsalis T-R-45 assessed as mortality
# Bactrocera dorsalis [3] = assay: Insecticidal activity against adult Bactrocera dorsalis T-R-48 assessed as mortality
# Bactrocera dorsalis [4] = assay: Resistance ratio of LC50 for adult Bactrocera dorsalis T-R-48 to LC50 for adult Bactrocera dorsalis
# Bactrocera dorsalis [5] = assay: Insecticidal activity against adult Bactrocera dorsalis CH08 assessed as mortality after 24 hr; details: CH08, 24 h
# Bactrocera dorsalis [6] = assay: Insecticidal activity against adult Bactrocera dorsalis YJ08 assessed as mortality after 24 hr; details: YJ08, 24 h
# Bactrocera dorsalis [7] = assay: Resistance ratio of LC50 for adult Bactrocera dorsalis FZ07 to LC50 for adult Bactrocera dorsalis after 24 hr
# Bactrocera dorsalis [8] = assay: Resistance ratio of LC50 for adult Bactrocera dorsalis NN08 to LC50 for adult Bactrocera dorsalis after 24 hr
# Bactrocera dorsalis [9] = assay: Resistance ratio of LC50 for adult Bactrocera dorsalis YJ07 to LC50 for adult Bactrocera dorsalis after 24 hr
# Bactrocera dorsalis [10] = assay: Insecticidal activity against adult Bactrocera dorsalis YJ07 assessed as mortality after 24 hr; details: YJ07, 24 h
# Bactrocera dorsalis [11] = assay: Resistance ratio of LC50 for adult Bactrocera dorsalis HK08 to LC50 for adult Bactrocera dorsalis after 24 hr
# Bactrocera dorsalis [12] = assay: Resistance ratio of LC50 for adult Bactrocera dorsalis CH08 to LC50 for adult Bactrocera dorsalis after 24 hr
# Bactrocera dorsalis [13] = assay: Insecticidal activity against adult Bactrocera dorsalis CS08 assessed as mortality after 24 hr; details: CS08, 24 h
# Bactrocera dorsalis [14] = assay: Insecticidal activity against adult Bactrocera dorsalis CH07 assessed as mortality after 24 hr; details: CH07, 24 h
# Bactrocera dorsalis [15] = assay: Insecticidal activity against adult Bactrocera dorsalis WX08 assessed as mortality after 24 hr; details: WX08, 24 h
# Bactrocera dorsalis [16] = assay: Resistance ratio of LC50 for adult Bactrocera dorsalis QY08 to LC50 for adult Bactrocera dorsalis after 24 hr
# Bactrocera dorsalis [17] = assay: Insecticidal activity against adult Bactrocera dorsalis HY07 assessed as mortality after 24 hr; details: HY07, 24 h
# Bactrocera dorsalis [18] = assay: Insecticidal activity against adult Bactrocera dorsalis CS07 assessed as mortality after 24 hr; details: CS07, 24 h
# Bactrocera dorsalis [19] = assay: Resistance ratio of LC50 for adult Bactrocera dorsalis NN07 to LC50 for adult Bactrocera dorsalis after 24 hr
# Bactrocera dorsalis [20] = assay: Resistance ratio of LC50 for adult Bactrocera dorsalis GZ08 to LC50 for adult Bactrocera dorsalis after 24 hr
# Bactrocera dorsalis [21] = assay: Resistance ratio of LC50 for adult Bactrocera dorsalis ZJ07 to LC50 for adult Bactrocera dorsalis after 24 hr
# Bactrocera dorsalis [22] = assay: Resistance ratio of LC50 for adult Bactrocera dorsalis QY07 to LC50 for adult Bactrocera dorsalis after 24 hr
# Bactrocera dorsalis [23] = assay: Resistance ratio of LC50 for adult Bactrocera dorsalis CS07 to LC50 for adult Bactrocera dorsalis after 24 hr
# Bactrocera dorsalis [24] = assay: Insecticidal activity against adult Bactrocera dorsalis QY07 assessed as mortality after 24 hr; details: QY07, 24 h
# Bactrocera dorsalis [25] = assay: Insecticidal activity against adult Bactrocera dorsalis NN07 assessed as mortality after 24 hr; details: NN07, 24 h
# Bactrocera dorsalis [26] = assay: Insecticidal activity against adult Bactrocera dorsalis FZ07 assessed as mortality after 24 hr; details: FZ07, 24 h
# Bactrocera dorsalis [27] = assay: Insecticidal activity against adult Bactrocera dorsalis GZ08 assessed as mortality after 24 hr; details: GZ08, 24 h
# Bactrocera dorsalis [28] = assay: Resistance ratio of LC50 for adult Bactrocera dorsalis FZ08 to LC50 for adult Bactrocera dorsalis after 24 hr
# Bactrocera dorsalis [29] = assay: Resistance ratio of LC50 for adult Bactrocera dorsalis CH07 to LC50 for adult Bactrocera dorsalis after 24 hr
# Bactrocera dorsalis [30] = assay: Insecticidal activity against adult Bactrocera dorsalis HK08 assessed as mortality after 24 hr; details: HK08, 24 h
# Bactrocera dorsalis [31] = assay: Insecticidal activity against adult Bactrocera dorsalis MM07 assessed as mortality after 24 hr; details: MM07, 24 h
# Bactrocera dorsalis [32] = assay: Resistance ratio of LC50 for adult Bactrocera dorsalis HZ08 to LC50 for adult Bactrocera dorsalis after 24 hr
# Bactrocera dorsalis [33] = assay: Resistance ratio of LC50 for adult Bactrocera dorsalis HY07 to LC50 for adult Bactrocera dorsalis after 24 hr
# Bactrocera dorsalis [34] = assay: Resistance ratio of LC50 for adult Bactrocera dorsalis MM07 to LC50 for adult Bactrocera dorsalis after 24 hr
# Bactrocera dorsalis [35] = assay: Resistance ratio of LC50 for adult Bactrocera dorsalis WX08 to LC50 for adult Bactrocera dorsalis after 24 hr
# Bactrocera dorsalis [36] = assay: Resistance ratio of LC50 for adult Bactrocera dorsalis CS08 to LC50 for adult Bactrocera dorsalis after 24 hr
# Bactrocera dorsalis [37] = assay: Insecticidal activity against adult Bactrocera dorsalis HZ08 assessed as mortality after 24 hr; details: HZ08, 24 h
# Bactrocera dorsalis [38] = assay: Resistance ratio of LC50 for adult Bactrocera dorsalis HK07 to LC50 for adult Bactrocera dorsalis after 24 hr
# Bactrocera dorsalis [39] = assay: Insecticidal activity against adult Bactrocera dorsalis HY08 assessed as mortality after 24 hr; details: HY08, 24 h
# Bactrocera dorsalis [40] = assay: Resistance ratio of LC50 for adult Bactrocera dorsalis MM08 to LC50 for adult Bactrocera dorsalis after 24 hr
# Bactrocera dorsalis [41] = assay: Insecticidal activity against adult Bactrocera dorsalis GZ07 assessed as mortality after 24 hr; details: GZ07, 24 h
# Bactrocera dorsalis [42] = assay: Insecticidal activity against adult Bactrocera dorsalis NN08 assessed as mortality after 24 hr; details: NN08, 24 h
# Bactrocera dorsalis [43] = assay: Insecticidal activity against adult Bactrocera dorsalis assessed as mortality after 24 hr
# Bactrocera dorsalis [44] = assay: Resistance ratio of LC50 for adult Bactrocera dorsalis YJ08 to LC50 for adult Bactrocera dorsalis after 24 hr
# Bactrocera dorsalis [45] = assay: Insecticidal activity against adult Bactrocera dorsalis HZ07 assessed as mortality after 24 hr; details: HZ07, 24 h
# Bactrocera dorsalis [46] = assay: Insecticidal activity against adult Bactrocera dorsalis WX07 assessed as mortality after 24 hr; details: WX07, 24 h
# Bactrocera dorsalis [47] = assay: Resistance ratio of LC50 for adult Bactrocera dorsalis GZ07 to LC50 for adult Bactrocera dorsalis after 24 hr
# Bactrocera dorsalis [48] = assay: Insecticidal activity against adult Bactrocera dorsalis FZ08 assessed as mortality after 24 hr; details: FZ08, 24 h
# Bactrocera dorsalis [49] = assay: Insecticidal activity against adult Bactrocera dorsalis MM08 assessed as mortality after 24 hr; details: MM08, 24 h
# Bactrocera dorsalis [50] = assay: Insecticidal activity against adult Bactrocera dorsalis QY08 assessed as mortality after 24 hr; details: QY08, 24 h
# Bactrocera dorsalis [51] = assay: Resistance ratio of LC50 for adult Bactrocera dorsalis HY08 to LC50 for adult Bactrocera dorsalis after 24 hr
# Bactrocera dorsalis [52] = assay: Resistance ratio of LC50 for adult Bactrocera dorsalis T-R-45 to LC50 for adult Bactrocera dorsalis
# Bactrocera dorsalis [53] = assay: Resistance ratio of LC50 for adult Bactrocera dorsalis HZ07 to LC50 for adult Bactrocera dorsalis after 24 hr
# Bactrocera dorsalis [54] = assay: Insecticidal activity against adult Bactrocera dorsalis ZJ07 assessed as mortality after 24 hr; details: ZJ07, 24 h
# Bactrocera dorsalis [55] = assay: Insecticidal activity against adult Bactrocera dorsalis HK07 assessed as mortality after 24 hr; details: HK07, 24 h
structure (smiles),measurement,setting,value
COP(=O)(OC)C(O)C(Cl)(Cl)Cl (stereo not drawn) [TRICHLORFON],RatioLC50,Bactrocera dorsalis [1],19.46
same,LC90,Bactrocera dorsalis [2],322.86 µg/mL
same,LC50,"Bactrocera dorsalis [2]; Bactrocera dorsalis, T-R-45",93.9 µg/mL
same,LC90,Bactrocera dorsalis [3],635.27 µg/mL
same,LC50,"Bactrocera dorsalis [3]; Bactrocera dorsalis, T-R-48",115 µg/mL
same,RatioLC50,Bactrocera dorsalis [4],71.58
same,LC50,Bactrocera dorsalis [5],28.7 µg/mL
same,LC50,Bactrocera dorsalis [6],8.38 µg/mL
same,RatioLC50,Bactrocera dorsalis [7],12.32
same,RatioLC50,Bactrocera dorsalis [8],7.39
same,RatioLC50,Bactrocera dorsalis [9],5.25
same,LC50,Bactrocera dorsalis [10],8.43 µg/mL
same,RatioLC50,Bactrocera dorsalis [11],1.37
same,RatioLC50,Bactrocera dorsalis [12],17.91
same,LC50,Bactrocera dorsalis [13],28.2 µg/mL
same,LC50,Bactrocera dorsalis [14],20.4 µg/mL
same,LC50,Bactrocera dorsalis [15],22.7 µg/mL
same,RatioLC50,Bactrocera dorsalis [16],7.34
same,LC50,Bactrocera dorsalis [17],41.4 µg/mL
same,LC50,Bactrocera dorsalis [18],27.2 µg/mL
same,RatioLC50,Bactrocera dorsalis [19],15.62
same,RatioLC50,Bactrocera dorsalis [20],8.87
same,RatioLC50,Bactrocera dorsalis [21],18.51
same,RatioLC50,Bactrocera dorsalis [22],11.53
same,RatioLC50,Bactrocera dorsalis [23],16.96
same,LC50,Bactrocera dorsalis [24],18.5 µg/mL
same,LC50,Bactrocera dorsalis [25],25.1 µg/mL
same,LC50,Bactrocera dorsalis [26],19.8 µg/mL
same,LC50,Bactrocera dorsalis [27],14.2 µg/mL
same,RatioLC50,Bactrocera dorsalis [28],20.2
same,RatioLC50,Bactrocera dorsalis [29],12.71
same,LC50,Bactrocera dorsalis [30],2.21 µg/mL
same,LC50,Bactrocera dorsalis [31],28.5 µg/mL
same,RatioLC50,Bactrocera dorsalis [32],1.51
same,RatioLC50,Bactrocera dorsalis [33],25.79
same,RatioLC50,Bactrocera dorsalis [34],17.78
same,RatioLC50,Bactrocera dorsalis [35],14.13
same,RatioLC50,Bactrocera dorsalis [36],17.56
same,LC50,Bactrocera dorsalis [37],2.43 µg/mL
same,RatioLC50,Bactrocera dorsalis [38],8.77
same,LC50,Bactrocera dorsalis [39],34 µg/mL
same,RatioLC50,Bactrocera dorsalis [40],70.45
same,LC50,Bactrocera dorsalis [41],31.8 µg/mL
same,LC50,Bactrocera dorsalis [42],11.9 µg/mL
same,LC90,Bactrocera dorsalis [43],2.64 µg/mL
same,LC50,"Bactrocera dorsalis [43]; Bactrocera dorsalis, 24 h",1.61 µg/mL
same,RatioLC50,Bactrocera dorsalis [44],5.22
same,LC50,Bactrocera dorsalis [45],26.8 µg/mL
same,LC50,Bactrocera dorsalis [46],31.2 µg/mL
same,RatioLC50,Bactrocera dorsalis [47],19.8
same,LC50,Bactrocera dorsalis [48],32.4 µg/mL
same,LC50,Bactrocera dorsalis [49],113 µg/mL
same,LC50,Bactrocera dorsalis [50],11.8 µg/mL
same,RatioLC50,Bactrocera dorsalis [51],21.19
same,RatioLC50,Bactrocera dorsalis [52],58.34
same,RatioLC50,Bactrocera dorsalis [53],16.72
same,LC50,Bactrocera dorsalis [54],29.7 µg/mL
same,LC50,Bactrocera dorsalis [55],14.1 µg/mL
